What all share (assay type): in vivo
One assay relates to Boophilus microplus. The assay can be described thus: Control of Ixodidae: engorged adult female ticks, reduction in viable egg masses. Here is the method: The compound to be tested is dissolved in a 35% acetone/65% water mixture in amounts sufficient to provide the concentrations indicated in Table I below. Ten ticks per treatment are used and they are immersed in the test solution for three to five minutes, then removed and held in incubators for two to three weeks at 28° C. Counts of ticks laying eggs are then made and recorded. Eggs which were laid are placed in containers and kept for one month to observe hatching and to determine chemosterilant effect.
Percent reduction in viable egg masses is believed to be indicative of one or more of the following mechanisms:
2. Suppression of fecundity.
3. Chemosterilant effect.

Assay [1] has as its system Boophilus microplus larvae. Description: Control of Boophilus microplus larvae. The settings on record: Rhipicephalus microplus, 48 h, read-out: Percent Mortality of Boophilus microplus. Here is the method: Twenty larvae are enclosed in a pipet sealed at one end with a gauze material, and a solution, containing the test compound at the concentrations given, is then drawn through the pipet with a vacuum hose simulating a spray system. The ticks are then held for 48 hours at room temperature, and percent mortality rates are then determined.

In assay [2] the test system is Tobacco Budworm [Heliothis virescens] larvae. The assay can be described thus: Tobacco Budworm newly hatched larvae test. The note with it: 3 days. The protocol: (§1) Tobacco Budworm [Heliothis virescens (Fabricus)].
(§2) A cotton plant with 2 true leaves expanded is dipped for 3 seconds with agitation in a 300 ppm solution. A 1.25 to 2 cm square of cheesecloth with about 50 to 100 budworm eggs 0-24 hours old is also dipped in the test solution and placed on one leaf to dry. The leaf with the treated budworm eggs is removed from the plant and placed in a 236.6 ml (8-Oz) Dixie cup with a wet 5 cm piece of dental wick and covered with a lid. The other leaf is placed in a similar cup with a wick and a piece of cheesecloth infested with 50-100 newly hatched larvae is added before covering the cup with a lid. After 3 days at 26.7° C., observations of egg hatch are made as well as kill of newly hatched larvae, any inhibition of feeding, or interference of any sort with normal development.
(§3) The rating system employed in these tests is as follows:
(§4) Compounds rated active (8 or 9) are further tested at reduced concentrations in 50% acetone: 50% water.

Assay [3] deals with Tobacco Budworm [Heliothis virescens] eggs. Description: Tobacco Budworm egg test. The settings on record: 300 ppm, 3 days. Here is the method:
as §1, §2, §3, §4

For assay [4], the system named is Malaria Mosquito (Anopheles quadrimaculatus). Description: Malaria Mosquito egg and larvae test. Here is the method: Malaria Mosquito (Anopheles quadrimaculatus say) egg and larvae test. One ml of a 300 ppm solution is pipetted into a 400 ml beaker containing 250 ml of deionized water and stirred with the pipette, giving a concentration of 1.2 ppm. A wax paper ring 0.6 cm wide to fit inside the beaker is floated on the surface of the test solution to keep the eggs from floating up the meniscus curve and drying out on the side of the glass. A spoon made of screen is used to scoop up and transfer about 100 eggs (0-24 hours old) into the test beaker. After two days at 26.7°C. observations of hatching are made. This includes kill of eggs or inhibition of hatch, kill of newly hatched larvae, or delayed hatch. Additional observations are made after another day for the same effects. The rating system employed in these tests is as follows: Compounds rated active (8 or 9) are further tested at reduced concentrations in 50% acetone: 50% water.

The test system of assay [5] is Two-Spotted Spider Mite [Tetranychus urticae]. The assay can be described thus: Phosphate-Resistant Strain of Two-Spotted Spider Mite test. Here is the method:
Phosphate-Resistant Strain of Two-Spotted Spider Mite [Tetranychus urticae (Koch)].
Sieva lima bean plants, with primary leaves 7.6 to 10 cm long, are infested with about 100 adult mites per leaf 4 hours before use in this test, in order to allow egg-laying before treatment. The infested plants are dipped for 3 seconds with agitation into a 300 ppm solution, and the plants set in the hood to dry. After 2 days at 26.7° C., the adult mite mortality is estimated on one leaf under a 10X stereoscopic microscope. The other leaf is left on the plant an additional 5 days and then examined at 10X power to estimate the kill of eggs and of newly-hatched nymphs, giving a measure of ovicidal and residual action, respectively.
as §3, §4

Assay [6] concerns Southern Armyworm [Spodoptera eridania]. The assay can be described thus: Southern Armyworm test. The settings on record: 2 days. Here is the method: Southern Armyworm [Spodoptera eridania (Cramer)].
A sieva lima bean plant with just the primary leaves expanded to 7.6 to 10 cm is dipped for 3 seconds with agitation in a 1000 ppm solution and set in a hood to dry. Following this, one leaf is placed in a 10 cm petri dish which has a moist filter paper in the bottom and 10 third-instar armyworm larvae about 1 cm long. The dish is covered and held at 26.7° C. After 2 days mortality counts and estimates of the amount of feeding are made. Compounds showing partial kill and/or inhibition of feeding are held for an extra day for further observations.
as §3, §4

The test system of assay [7] is Mexican Bean Beetle (Epilachna varivestis). The assay can be described thus: Mexican Bean Beetle test. The settings on record: 300 ppm.
Source text: Mexican Bean Beetle (Epilachna varivestis Mulsant)
Sieva lima bean plants (2 per pot) with primary leaves 7.6 to 10 cm long, are dipped in a 300 ppm solution and set in a hood to dry. One leaf is removed from the plant and placed in a 10 cm petri dish containing a moist filter paper on the bottom and 10 last-instar larvae (13 days from hatching).
The day after treatment, another leaf is removed from the plant and fed to the larvae after removing the remains of the original leaf. Two days after treatment, the third leaf is fed to the larvae, this usually being the last needed. The fourth leaf is used on the third day after treatment if the larvae have not finished feeding. The test is now set aside and held until adults have emerged, usually about 9 days after treatment began. After emergence is complete, each dish is examined for dead larvae, pupae or adults; deformed pupae or adults; larval-pupal intermediates or pupal-adult intermediates; or any other interference with normal molting, transformation and emergence of pupae or adults.
as §3, §4

A further assay has as its system Bean Aphid (Aphid fabae). Description: Bean Aphid test. The note with it: 1 day. Here is the method:
Bean Aphid (Aphid fabae Scopoli).
Five cm fiber pots, each containing a nasturtium plant 5 cm high and infested with 100 to 500 aphids 2 days earlier are placed on a 4 rpm turntable and sprayed with a 100 ppm solution of 2 revolutions with a No. 154 DeVilbiss Atomizer at 1.4 kg/cm^2 air pressure. The spray tip is held about 15 cm from the plants and the spray directed so as to give complete coverage of the aphids and the plants. The sprayed plants are laid on their sides on white enamel trays. Mortality estimates are made after 1 day at 26.7° C.
as §3, §4

Assay [8] concerns Western Potato Leaf Hopper (Empoasca abrupta). Description: Western Potato Leaf Hopper test. The note with it: 2 days.
Source text: Western Potato Leaf Hopper (Empoasca abrupta DeLong)
A lima bean plant with the primary leaf expanded to 7.6 to 10 cm is dipped into a 100 ppm solution and set in a hood to dry. A 2.5 cm piece of the tip of 1 leaf is cut off and placed in a 10 cm petri dish with a moist filter paper in the bottom. (In practice, this is usually cut off the tip of a plant from the Mexican bean beetle tests using a bean leaf dipped in the needed solution). From 3 to 10 second-instar nymphs are tapped from the culture plants into the test dish and rapidly covered. Mortality counts are made after two days at 26.7° C.
as §3, §4

Assay [9] has as its system Tobacco Budworm [Heliothis virescens] third instar. The assay can be described thus: Tobacco Budworm third instar test. The note with it: 3 days. The protocol:
Tobacco Budworm [Heliothis virescens (Fabricius)]. Third instar. Three cotton plants with just expanded cotyledons are dipped in a 1000 ppm solution, and placed in a hood to dry. When dry, each cotyledon is cut in half and 10 are each placed in a 29.6 ml plastic medicine cup containing a 1.25 cm dental wick saturated with water, and one third-instar budworm larva is added. The cup is capped and held for 3 days at 26.7° C., after which mortality counts are made. The rating system employed in these tests is as follows: Compounds rated active (8 or 9) are further tested at reduced concentrations in 50% acetone: 50% water.

The test system of assay [10] is Cabbage Looper [Trichoplusia ni]. The assay can be described thus: Cabbage Looper test. The settings on record: 2 days. Here is the method: Cabbage Looper. [Trichoplusia ni (Hubner)].
A primary leaf of a cotton plant is dipped in the test solution and agitated for 3 seconds. It is then set in a hood to dry. Following this, the leaf is placed in a 10 cm petri dish containing a moist filter paper at the bottom and 10 third-instar loopers. The dish is covered and held at 26.7° C. After 2 days, mortality counts and estimates of feeding damage are recorded. Those materials showing partial kill and/or inhibition of feeding are held for another day for further observations.
as §3, §4

For assay [11], the system named is Malaria Mosquito (Anopheles quadrimaculatus) adult. The assay can be described thus: Malaria Mosquito Adult Test. The note with it: 1 day. Here is the method:
Malaria Mosquito (Anopheles quadrimaculatus Say) Adult Test
Ten ppm solutions are poured into wide-mouth 46.2 ml jars each containing a microscope slide. The slides are removed from the test solution with forceps and laid horizontally to dry on a wide-mouth 118.4 ml bottle. When dry, they are placed in the same 118.4 ml bottle and ten 4 to 5-day old mosquitoes of mixed sexes are added to each bottle. A piece of cotton gauze held on by an elastic band serves as a lid and a wad of cotton soaked in 10% honey solution serves as food. Mortality counts are made after 1 day at 26.7° C.
as §3, §4

“And” between values parts separate entries of the source, which are not always exact repeats. Equal entries are not always repeated.

Turning to `CC1(C)C(C(=O)OC(C#N)c2cccc(Oc3ccccc3)c2)C12C=C(Cl)c1ccccc12` (stereo not shown) [drawing 5], the “Percent reduction in viable egg masses” value in the assay with Boophilus microplus (125 ppm) is given as 98%.

Turning to `CC1(C)C(C(=O)OCc2cccc(Oc3ccccc3)c2)C12C=C(Cl)c1ccccc12` (stereo not shown) [drawing 6], the “Percent reduction in viable egg masses” value was found to be 0% with Boophilus microplus (15 ppm), 72.7% with Boophilus microplus (31 ppm), 83.9% with Boophilus microplus (62 ppm) and 91.9% in the assay with Boophilus microplus (125 ppm).

As usually defined, the mortality is the share of the test organisms that died. On to `CC1(C)C(C(=O)OC(C#N)c2cccc(Oc3ccccc3)c2)C12C=C(Cl)c1ccccc12` (stereo not shown) [drawing 7], for which, in assay [1] (0.012 ppm), the mortality at 0.012 ppm came out at 0%. Also, the mortality at 0.05 ppm in assay [1] (0.05 ppm) came to 0%. Further, the mortality at 0.78 ppm in [1] (0.78 ppm) lay in the range of 80 to 100%.

On to `CC1(C)C(C(=O)OCc2cccc(Oc3ccccc3)c2)C12C=C(Cl)c1ccccc12` (stereo not shown) [drawing 8], for which, in [1] (100 ppm), the mortality at 100 ppm stood at 100%.

On to `CC1(C)C(C(=O)OC(C#N)c2cccc(Oc3ccccc3)c2)C12C=C(Cl)c1ccccc12` (stereo not shown) [drawing 9], for which the “Insecticidal activity rating, Tobacco Budworm Larvae” value in assay [2] (10 ppm), in [2] (100 ppm) and in assay [2] (300 ppm) was 9 (100% mortality) in each case. Also, the “Insecticidal activity rating, Tobacco Budworm Eggs” value in assay [3] is reported as 0 (0-4% killed or affected). The “Insecticidal activity rating, Mosquito Larvae” value in [4] (0.04 ppm), in assay [4] (0.4 ppm) and in assay [4] (1.2 ppm) was 9 (100% mortality) throughout.

For `CC1(C)C(C(=O)OCc2cccc(Oc3ccccc3)c2)C12C=C(Cl)c1ccccc12` (stereo not shown) [drawing 12], the “Activity rating, Phosphate Resistant Mites” value is on record as 0 (0-4% killed or affected) in [5] (100 ppm) and 8 (86-95% mortality) in assay [5] (300 ppm). Moreover, the “Insecticidal activity rating, Southern Armyworms” value is 0 (0-4% killed or affected) in assay [6] (10 ppm), 9 (100% mortality) in assay [6] (100 ppm) and 9 (100% mortality) in assay [6] (1000 ppm). Besides, the “Insecticidal activity rating, Mexican Bean Beetles” value in assay [7] is recorded as 9 (100% mortality).

Take `CC1(C)C(C(=O)OC(C#N)c2cccc(Oc3ccccc3)c2)C12C=C(Cl)c1ccccc12` (stereo not shown) [drawing 13]: the “Insecticidal activity rating, Bean Aphids” value with Bean Aphid (Aphid fabae) (1 ppm), with Bean Aphid (Aphid fabae) (10 ppm) and in the assay with Bean Aphid (Aphid fabae) (100 ppm) was 9 (100% mortality) in each case. Further, the “Insecticidal activity rating, Leaf Hopper” value in [8] (10 ppm) and in assay [8] (100 ppm) was 9 (100% mortality) throughout. For the same compound, the entries for the “Insecticidal activity rating, Tobacco Budworm 3rd Instar” value in [9] (100 ppm) and in assay [9] (1000 ppm) were 0 (0-4% killed or affected) and 5 (51-60% mortality), respectively. The “Insecticidal activity rating, Cabbage Looper” value in assay [10] (100 ppm) and in [10] (1000 ppm) was 9 (100% mortality) each time. The “Insecticidal activity rating, Mosquito, Adult” value in assay [11] (1 ppm) was 7 (71-85% mortality) and 6 (61-70% mortality) and 9 (100% mortality); in assay [11] (10 ppm), 9 (100% mortality).

With `CC1(C)C(C(=O)OCc2cccc(Oc3ccccc3)c2)C12C=C(Cl)c1ccccc12` (stereo not shown) [drawing 14], the “Insecticidal activity rating, Bean Aphids” value with Bean Aphid (Aphid fabae) (1 ppm) was 0 (0-4% killed or affected); in the assay on Bean Aphid (Aphid fabae) (10 ppm), 9 (100% mortality); with Bean Aphid (Aphid fabae) (100 ppm), 9 (100% mortality). The “Insecticidal activity rating, Leaf Hopper” value in assay [8] (10 ppm) and in [8] (100 ppm) was 9 (100% mortality) each time. The “Insecticidal activity rating, Tobacco Budworm 3rd Instar” value in assay [9] (100 ppm) is 5 (51-60% mortality); in assay [9] (1000 ppm) it was 9 (100% mortality). Further, the “Insecticidal activity rating, Cabbage Looper” value in assay [10] (100 ppm) and in assay [10] (1000 ppm) was 9 (100% mortality) throughout. In addition, in [11] (10 ppm), the “Insecticidal activity rating, Mosquito, Adult” value is listed as 0 (0-4% killed or affected).

The values above are taken from patent US4358607A, “Chloro-substituted benzospiro cyclopropane carboxylic acid” (American Cyanamid Co., priority 1978, dated 1982).
